Test results: patent US20030017462A1, “Control samples for use as standards for evaluating apoptosis in a selected tissue” (priority 2001, published 2003)
Entries after “also recorded” stand apart in the source; their conditions may differ.

Tested on: thymic tissue
Assay: Thymic apoptosis in microgravity culture (RCCS bioreactor), TUNEL assay
Assay type: cell-based, Lewis rats
Conditions: for Percent Area of Stain: 1 μM dexamethasone in culture media, microgravity bioreactor, 37° C.; for Ratio DEX/CON (Percent Area of Stain): 1 μM dexamethasone vs control media
Description: The following media and solutions were prepared:
1. Phosphate buffered saline (PBS) for rinsing tissue.
2. Control media, consisting of RPMi 1640 containing 15% heat-inactivated fetal bovine serum, 100 μg/mL penicillin, 100 μg/mL streptomycin, 100 μg/mL L-glutamine, and 2.5 μg/mL amphotericin B.
3. Experimental media, consisting of control media containing 1 μM dexamethasone.
Two microgravity bioreactors (Synthecon, Inc., Houston Tex.) were utilized; one containing control media and one containing experimental media.
The thymus was removed from two Lewis rats, washed in cold PBS to remove blood, and stripped of excess tissue. Thymus tissue was cut into sections of about 3 mm^3, while in cold media.
The bioreactors were filled with control (CON) or experimental (DEX) media. Approximately 24 thymus pieces were placed in each bioreactor, for incubation at 37° C. at a rotation speed appropriate for the size of tissue piece and sedimentation rate, in order to provide constant free-fall. Tissue pieces were removed from each bioreactor every half hour for the first 3 hours, then every hour to the sixth hour, then at hour 10 and hour 24.
Tissue was fixed in 10% neutral buffered formalin or Histochoice™ (Amresco, Inc., Solon Ohio), processed to paraffin and sectioned for histochemical analysis. Formalin-fixed sections were stained with hematoxylin and eosin. Immunohistochemical staining for Lewis Y expression was performed with Histochoice TM fixed samples on a DAKO autostainer, using a monoclonal mouse anti-human Lewis γ antibody (DAKO, Carpinteria Calif.). A peroxidase labeled streptavidin-biotin detection system (Zymed, So. San Francisco Calif.) and diaminobenzidine (DAB) chromagen were used.
In situ labeling of apoptosis was measured by terminal deoxynucleotidyl transferase mediated dUTP nick end labeling (TUNEL) method with a cell death detection kit (Boehringer Mannheim Gmbh, Mannheim, Germany). Using digital image analysis, immunostained sections were analyzed for intensity stain index (ISI=[ΣP0×I0]/total tissue area in pixels), where P0=number of pixels at each intensity and I0=the intensity units (Doolin et al., J. Surg. Res. 59: 191-197, 1995). TUNEL was quantified as total apoptotic cell number divided by total tissue area.

## C[C@@H]1C[C@H]2[C@@H]3CCC4=CC(=O)C=C[C@]4(C)[C@@]3(F)[C@@H](O)C[C@]2(C)[C@@]1(O)C(=O)CO [DEX, dexamethasone]
Time 0 hours
  Percent Area of Stain: 6.04%
  Ratio DEX/CON (Percent Area of Stain): 1.00
Time 3 hours
  Percent Area of Stain: 21.68%
  Ratio DEX/CON (Percent Area of Stain): 1.46
Time 6 hours
  Percent Area of Stain: 33.29%
  Ratio DEX/CON (Percent Area of Stain): 1.58
Time 10 hours
  Percent Area of Stain: 43.82%
  Ratio DEX/CON (Percent Area of Stain): 1.37
Time 24 hours
  Percent Area of Stain: 43.30%
  Ratio DEX/CON (Percent Area of Stain): 0.87
1 μM dexamethasone in culture medium, RCCS bioreactor, compared with control culture
  Effect on rate of apoptosis of thymic tissue: increases the rate of apoptosis; also recorded: increased the rate of apoptosis up to 10 hours post-initiation
Thymic tissue in RCCS bioreactor in the presence of dexamethasone (24 hours without)
  Time to maximum level of apoptosis, as measured by TUNEL: 10 h
